Reference: patent US20240189309A1, “TYK2 INHIBITORS AND USES THEREOF” (Sudo Biosciences Limited, priority 2021, published 2024)

How the values were obtained:
Format in all cases: cell-based
TYK2 Pseudokinase (JH2) [1] = biological target: T1, TYK2 Pseudokinase (JH2) (Homo sapiens, UniProt P29597); experiment: HEK-Blue IFNα/β reporter assay (SEAP) for profiling TYK2 pseudokinase (JH2) inhibition; details: HEK-Blue IFNα/β cells, 1 ng/mL human recombinant IFNα, read-out: IFNα (TYK2 inhibitory activity, IC50)
Procedure: (§1) Example B-1: HEK-Blue™ IL-23 and IFNα/β Reporter Assays for Profiling TYK2 Pseudokinase (JH2) Inhibition
(§2) HEK-Blue™ IL-23 and IFNα/β cells with a stably-integrated cytokine receptor and STAT3 or STAT1 express STAT-inducible secreted embryonic alkaline phosphatase (SEAP) reporter gene upon cytokine stimulation. These cells are plated in DMEM (Gibco) containing 10% heat-inactivated FBS (Gibco) and 100 U/mL PenStrep (Gibco) at 37° C. under 5% CO2 conditions for 20-22 hours. The cells are then pretreated with serially diluted test compounds for 60 min prior to stimulation with either 10 ng/mL human recombinant IL-23 (Miltenyl Biotech) or 1 ng/mL human recombinant IFNα (InvivoGen) for 22-24 hours for IL-23 or 16-18 h for IFNα. SEAP induction is measured using the QUANTI Blue™ Solution (InvivoGen) according to the manufacturer's instructions.

TYK2 Pseudokinase (JH2) [2] = biological target: T1, TYK2 Pseudokinase (JH2); experiment: HEK-Blue IL-23 reporter assay (SEAP) for profiling TYK2 pseudokinase (JH2) inhibition; set-up: HEK-Blue™ IL-23 and IFNα/β cells with a stably-integrated cytokine receptor and STAT3 or STAT1; endogenous in cells; host or cells: HEK-Blue IL-23 and HEK-Blue IFNα/β cells; details: HEK-Blue IL-23 cells, 10 ng/mL human recombinant IL-23, SEAP reporter; read-out: IL23 (TYK2 inhibitory activity, IC50)
Procedure: as §1, §2

[3] = system: HEK-Blue™ IL-2 reporter cells; experiment: HEK-Blue IL-2 reporter assay (SEAP) for determining selectivity; details: HEK-Blue IL-2 cells, 4 ng/mL human recombinant IL-2, SEAP reporter
Procedure: (§3) Example B-3: HEK-Blue™ IL-2 and IFNγ Reporter Assays for Determining Selectivity
(§4) HEK-Blue™ IL-2 and IFNγ reporter cells with a stably-integrated cytokine receptor and STAT5 or STAT1 express STAT-inducible secreted embryonic alkaline phosphatase (SEAP) reporter gene upon cytokine stimulation. These cells were plated in DMEM (Gibco) containing 10% heat-inactivated FBS (Gibco) and 100 U/mL PenStrep (Gibco) at 37° C. under 5% CO2 conditions for 20-22 hours. The cells were then pre-treated with serially diluted test compounds for 60 min prior to stimulation with either 4 ng/mL human recombinant IL-2 (Miltenyl Biotech) or 50 ng/mL human recombinant IFNγ (InvivoGen) for 24 hours. SEAP induction was measured using the QUANTI-Blue™ Solution (InvivoGen) according to the manufacturer's instructions.

[4] = system: HEK-Blue™ IFNγ reporter cells; experiment: HEK-Blue IFNγ reporter assay (SEAP) for determining selectivity; details: 50 ng/mL human recombinant IFNγ, read-out: IFN-γ (SEAP selectivity, IC50)
Procedure: as §3, §4

T1 sequence (P29597 whole entry): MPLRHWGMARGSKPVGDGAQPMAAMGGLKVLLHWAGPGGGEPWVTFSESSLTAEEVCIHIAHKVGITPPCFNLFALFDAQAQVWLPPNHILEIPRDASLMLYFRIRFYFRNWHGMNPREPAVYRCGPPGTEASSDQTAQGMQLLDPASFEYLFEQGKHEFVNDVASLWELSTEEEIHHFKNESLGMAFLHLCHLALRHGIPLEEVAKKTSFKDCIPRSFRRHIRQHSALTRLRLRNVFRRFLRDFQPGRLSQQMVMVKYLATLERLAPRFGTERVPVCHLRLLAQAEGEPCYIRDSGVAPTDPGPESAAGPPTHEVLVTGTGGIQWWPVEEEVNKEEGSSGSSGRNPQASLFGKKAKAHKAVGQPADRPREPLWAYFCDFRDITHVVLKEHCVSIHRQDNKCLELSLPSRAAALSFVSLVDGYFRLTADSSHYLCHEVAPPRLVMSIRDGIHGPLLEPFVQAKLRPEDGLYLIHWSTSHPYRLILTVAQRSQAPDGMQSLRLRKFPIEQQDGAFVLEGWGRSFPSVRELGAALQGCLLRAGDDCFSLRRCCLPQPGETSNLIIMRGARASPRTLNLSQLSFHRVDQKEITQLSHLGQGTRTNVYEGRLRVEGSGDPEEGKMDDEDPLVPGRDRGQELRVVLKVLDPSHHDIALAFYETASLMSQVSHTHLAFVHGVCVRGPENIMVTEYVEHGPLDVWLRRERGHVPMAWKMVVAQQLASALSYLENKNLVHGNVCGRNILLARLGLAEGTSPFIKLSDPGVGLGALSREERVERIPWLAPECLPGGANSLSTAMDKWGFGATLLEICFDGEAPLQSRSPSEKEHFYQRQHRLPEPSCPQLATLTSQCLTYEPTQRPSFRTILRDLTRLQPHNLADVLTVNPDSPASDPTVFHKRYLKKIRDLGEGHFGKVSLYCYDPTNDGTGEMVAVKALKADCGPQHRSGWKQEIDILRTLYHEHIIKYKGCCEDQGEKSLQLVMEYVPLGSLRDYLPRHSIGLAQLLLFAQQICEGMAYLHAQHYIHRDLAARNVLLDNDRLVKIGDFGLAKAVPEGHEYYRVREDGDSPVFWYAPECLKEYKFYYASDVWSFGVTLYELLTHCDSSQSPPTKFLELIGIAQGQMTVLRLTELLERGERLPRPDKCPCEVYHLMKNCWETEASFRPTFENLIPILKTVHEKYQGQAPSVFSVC

Compound	IC50 (TYK2 Pseudokinase (JH2) [1])	IC50 (TYK2 Pseudokinase (JH2) [2])	IC50 [3]	IC50 [4]
CNC(=O)c1nnc(Nc2ccc(F)cn2)cc1Nc1cccc2c1OCc1c-2noc1C [Compound 1, 6-((5-fluoropyridin-2-yl)amino)-N-methyl-4-((3-methyl-4H-chromeno[4,3-c]isoxazol-6-yl)amino)pyridazine-3-carboxamide]	> 1000 nM	300 to 1000 nM	–	–
CNC(=O)c1nnc(NC(=O)C2CC2)cc1Nc1cccc2c1OCc1c-2noc1C [Compound 3, 6-(cyclopropanecarboxamido)-N-methyl-4-((3-methyl-4H-chromeno[4,3-c]isoxazol-6-yl)amino)pyridazine-3-carboxamide]	–	30 to 300 nM	> 1000 nM	> 1000 nM
CNC(=O)c1nnc(Nc2ccc(F)cn2)cc1Nc1cccc2c1OCc1nnnn1-2 [Compound 4, 4-((4H-benzo[b]tetrazolo[1,5-d][1,4]oxazin-6-yl)amino)-6-((5-fluoropyridin-2-yl)amino)-N-methylpyridazine-3-carboxamide]	> 1000 nM	300 to 1000 nM	–	–
CNC(=O)c1nnc(NC(=O)C2CC2)cc1Nc1cccc2c1OCn1nnnc1-2 [Compound 5, 4-((5H-benzo[e]tetrazolo[1,5-c][1,3]oxazin-7-yl)amino)-6-(cyclopropanecarboxamido)-N-methylpyridazine-3-carboxamide]	> 1000 nM	300 to 1000 nM	–	–
CNC(=O)c1nnc(NC(=O)C2CC2)cc1Nc1cccc2c1OCc1nn(C)c(=O)n1-2 [Compound 6, 6-(cyclopropanecarboxamido)-N-methyl-4-((2-methyl-1-oxo-2,4-dihydro-1H-benzo[b][1,2,4]triazolo[4,3-d][1,4]oxazin-6-yl)amino)pyridazine-3-carboxamide]	> 1000 nM	300 to 1000 nM	–	–
CNC(=O)c1nnc(Nc2ccc(F)cn2)cc1Nc1cccc2c1OCc1nn(C)c(=O)n1-2 [Compound 7, 6-((5-fluoropyridin-2-yl)amino)-N-methyl-4-((2-methyl-1-oxo-2,4-dihydro-1H-benzo[b][1,2,4]triazolo[4,3-d][1,4]oxazin-6-yl)amino)pyridazine-3-carboxamide]	> 1000 nM	> 1000 nM	–	–
[2H]C([2H])([2H])NC(=O)c1cnc(NC(=O)C2CC2)cc1Nc1cncc2c1N(C)Cc1nn(C)c(=O)n1-2 [Compound 13, 6-(cyclopropanecarboxamido)-4-((2,5-dimethyl-1-oxo-1,2,4,5-tetrahydropyrido[4,3-e][1,2,4]triazolo[4,3-a]pyrazin-6-yl)amino)-N-(methyl-d3)nicotinamide]	> 1000 nM	> 1000 nM	–	–
[2H]C([2H])([2H])NC(=O)c1nnc(NC(=O)C2COC2)cc1Nc1cccc2c1N(C)Cc1nn(C)c(=O)n1-2 [Compound 19, 4-((2,5-dimethyl-1-oxo-1,2,4,5-tetrahydro-[1,2,4]triazolo[4,3-a]quinoxalin-6-yl)amino)-N-(methyl-d3)-6-(oxetane-3-carboxamido)pyridazine-3-carboxamide]	300 to 1000 nM	> 1000 nM	–	–
[2H]C([2H])([2H])NC(=O)c1cnc(NC(=O)C2CC2)cc1Nc1nccc2c1N(C)Cc1nn(C)c(=O)n1-2 [Compound 21, 6-(cyclopropanecarboxamido)-4-((2,5-dimethyl-1-oxo-1,2,4,5-tetrahydropyrido[3,4-e][1,2,4]triazolo[4,3-a]pyrazin-6-yl)amino)-N-(methyl-d3)nicotinamide]	30 to 300 nM	< 30 nM	> 1000 nM	300 to 1000 nM
[2H]C([2H])([2H])NC(=O)c1nnc(NC(=O)C2CC2)cc1Nc1cccc2c1N(C)Cc1nc(C)oc1-2 [Compound 22, 6-(cyclopropanecarboxamido)-4-((2,5-dimethyl-4,5-dihydrooxazolo[4,5-c]quinolin-6-yl)amino)-N-(methyl-d3)pyridazine-3-carboxamide]	–	< 30 nM	300 to 1000 nM	–
[2H]C([2H])([2H])NC(=O)c1cnc(NC(=O)C2CC2)cc1Nc1cccc2c1N(C)Cc1nc(C)oc1-2 [Compound 23, 6-(cyclopropanecarboxamido)-4-((2,5-dimethyl-4,5-dihydrooxazolo[4,5-c]quinolin-6-yl)amino)-N-(methyl-d3)nicotinamide]	30 to 300 nM	< 30 nM	> 1000 nM	30 to 300 nM
[2H]C([2H])([2H])NC(=O)c1nnc(NC(=O)C2CC2)cc1Nc1cccc2c1N(C)Cc1sc(C)nc1-2 [Compound 35, 6-(cyclopropanecarboxamido)-4-((2,5-dimethyl-4,5-dihydrothiazolo[5,4-c]quinolin-6-yl)amino)-N-(methyl-d3)pyridazine-3-carboxamide]	< 30 nM	< 30 nM	> 1000 nM	–
[2H]C([2H])([2H])NC(=O)c1nnc(NC(=O)C2CC2)cc1Nc1nccc2c1N(C)Cc1sc(C)nc1-2 [Compound 36, 6-(cyclopropanecarboxamido)-4-((2,5-dimethyl-4,5-dihydrothiazolo[5,4-c][1,7]naphthyridin-6-yl)amino)-N-(methyl-d3)pyridazine-3-carboxamide]	< 30 nM	< 30 nM	300 to 1000 nM	30 to 300 nM
[2H]C([2H])([2H])NC(=O)c1nnc(NC(=O)C2CC2)cc1Nc1cccc2c1N(C)CC1CCC(=O)N21 (centres unmarked) [Compound 37, 6-(cyclopropanecarboxamido)-N-(methyl-d3)-4-((5-methyl-1-oxo-1,2,3,3a,4,5-hexahydropyrrolo[1,2-a]quinoxalin-6-yl)amino)pyridazine-3-carboxamide]	30 to 300 nM	< 30 nM	> 1000 nM	300 to 1000 nM
[2H]C([2H])([2H])NC(=O)c1nnc(NC(=O)C2CC2)cc1Nc1cccc2c1N(C)C[C@H]1CCC(=O)N21 [Compound 38, (R)-6-(cyclopropanecarboxamido)-N-(methyl-d3)-4-((5-methyl-1-oxo-1,2,3,3a,4,5-hexahydropyrrolo[1,2-a]quinoxalin-6-yl)amino)pyridazine-3-carboxamide]	30 to 300 nM	< 30 nM	300 to 1000 nM	30 to 300 nM
[2H]C([2H])([2H])NC(=O)c1nnc(NC(=O)C2CC2)cc1Nc1cccc2c1N(C)C[C@@H]1CCC(=O)N21 [Compound 39, (S)-6-(cyclopropanecarboxamido)-N-(methyl-d3)-4-((5-methyl-1-oxo-1,2,3,3a,4,5-hexahydropyrrolo[1,2-a]quinoxalin-6-yl)amino)pyridazine-3-carboxamide]	300 to 1000 nM	30 to 300 nM	–	–
